These results are taken from US6441195B1, “Substituted sulphonylamino(thio) carbonyl compounds” (Bayer Aktiengesellschaft, priority 1995, dated 2002).

The structures appear in SMILES notation.

Holding throughout (format): in vivo
Data set [1] has as its system weeds. In words: Pre-emergence test (greenhouse), activity against weeds. The settings on record: in words. Put shortly: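 Compound formulated in acetone with alkylaryl polyglycol ether emulsifier, diluted in water, and watered onto soil about 24 h after sowing, dosed by application rate per unit area. Damage rated after three weeks as % versus untreated control (0% = no action).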

The test system of data set [2] is weeds. In words: Post-emergence test (greenhouse), activity against weeds. The settings on record: in words. A digest of the protocol:
(§1)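 Read-out: % damage vs untreated control at three weeks, 0% meaning no effect. Plants of 5–15 cm were sprayed with aqueous dilution of an acetone/emulsifier concentrate at the desired rate per area, spray volume 2000 l/ha.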

Data set [3] concerns Maize. In words: Post-emergence test/greenhouse, Maize. The settings on record: greenhouse, 30 g of ai./ha, after three weeks. The procedure: Solvent: 5 parts by weight of acetone
Emulsifier: 1 part by weight of alkylaryl polyglycol ether
To produce a suitable preparation of active compound, 1 part by weight of active compound is mixed with the stated amount of solvent, the stated amount of emulsifier is added and the concentrate is diluted with water to the desired concentration.
Test plants which have a height of 5-15 cm are sprayed with the preparation of the active compound in such a way as to apply the particular amounts of active compound desired per unit area. The concentration of the spray liquor is chosen so that the particular amounts of active compound desired are applied in 2000 l of water/ha.
After three weeks, the degree of damage to the plants is rated in % damage in comparison to the development of the untreated control.
0%=no action (like untreated control)

Another data set has as its system Digitaria. In words: Post-emergence test/greenhouse, Digitaria. To be noted: greenhouse, 30 g of ai./ha, after three weeks. Put shortly: as §1
A further data set relates to Echinochloa. In words: Post-emergence test/greenhouse, Echinochloa. To be noted: greenhouse, 30 g of ai./ha, after three weeks. Put shortly: as §1
In data set [4] the test system is Lolium. In words: Post-emergence test/greenhouse, Lolium. The settings on record: greenhouse, 30 g of ai./ha, after three weeks. Put shortly:
as §1

For data set [5], the system named is Sorghum. In words: Post-emergence test/greenhouse, Sorghum. The settings on record: greenhouse, 30 g of ai./ha, after three weeks. A digest of the protocol:
as §1

For another data set, the system named is Amaranthus. In words: Post-emergence test/greenhouse, Amaranthus. The settings on record: greenhouse, 30 g of ai./ha, after three weeks. Put shortly:
as §1

The test system of another data set is Gallium. In words: Post-emergence test/greenhouse, Gallium. To be noted: greenhouse, 30 g of ai./ha, after three weeks. Put shortly:
as §1

Data set [6] relates to Matricaria. In words: Post-emergence test/greenhouse, Matricaria. To be noted: greenhouse, 30 g of ai./ha, after three weeks. Put shortly:
as §1

For another data set, the system named is Stellaria. In words: Post-emergence test/greenhouse, Stellaria. To be noted: greenhouse, 30 g of ai./ha, after three weeks. A digest of the protocol:
as §1

Data set [7] concerns Maize. In words: Pre-emergence test/Greenhouse, Maize. To be noted: in vivo. Put shortly: (§2)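 In this greenhouse test the application rate per unit area, not the concentration of the preparation, defines the dose; the emulsified preparation is applied to soil about 24 h post-sowing. Plants are scored for % damage versus untreated control after three weeks.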
A further data set relates to Soya beans. In words: Pre-emergence test/Greenhouse, Soya beans. The settings on record: in vivo. Put shortly: as §2
Data set [8] has as its system Lolium. In words: Pre-emergence test/Greenhouse, Lolium. To be noted: 15 g of ai./ha, after three weeks. Put shortly:
as §2

The test system of another data set is Poa. In words: Pre-emergence test/Greenhouse, Poa. To be noted: 15 g of ai./ha, after three weeks. Put shortly: as §2
For data set [9], the system named is Sorghum. In words: Pre-emergence test/Greenhouse, Sorghum. The settings on record: 15 g of ai./ha, after three weeks. A digest of the protocol: as §2
Another data set concerns Ambrosia. In words: Pre-emergence test/Greenhouse, Ambrosia. To be noted: 15 g of ai./ha, after three weeks. A digest of the protocol:
as §2

Data set [10] concerns Matricaria. In words: Pre-emergence test/Greenhouse, Matricaria. The settings on record: 15 g of ai./ha, after three weeks. A digest of the protocol: as §2
In a further data set the test system is Solanum. In words: Pre-emergence test/Greenhouse, Solanum. The settings on record: 15 g of ai./ha, after three weeks. Put shortly: as §2

`COC(=O)c1cccc(C)c1S(=O)(=O)NC(=O)n1nc(SCCF)n(C2CC2)c1=O` [Example 151]: the activity against weeds entry in the data set with weeds [1] and with weeds [2] was “very strong activity against weeds” each time. In addition, the “degree of damage, Maize” value in the data set on Maize [3] turned out to be 60%. Moreover, the “degree of damage, Digitaria” value in the data set with Digitaria is recorded as 90%. For the same compound, in the data set on Echinochloa, the “degree of damage, Echinochloa” value amounted to 70%. For the same compound, the “degree of damage, Lolium” value with Lolium [4] came to 60%. Besides, the “degree of damage, Sorghum” value in the data set on Sorghum [5] is 90%. Moreover, in the data set with Amaranthus, the “degree of damage, Amaranthus” value was found to be 95%. In the data set with Gallium, the “degree of damage, Gallium” value was determined as 90%. Also, the “degree of damage, Matricaria” value in the data set with Matricaria [6] is reported as 90%. The “degree of damage, Stellaria” value with Stellaria is 90%. Further, the “degree of damage to the plants (% damage vs untreated control), Maize” value in the data set on Maize [7] was 20%. In addition, in the data set with Soya beans, the “degree of damage to the plants (% damage vs untreated control), Soya beans” value was 10%. In addition, the “degree of damage to the plants (% damage vs untreated control), Lolium” value with Lolium [8] is recorded as 90%. Besides, the “degree of damage to the plants (% damage vs untreated control), Poa” value in the data set with Poa turned out to be 90%. The “degree of damage to the plants (% damage vs untreated control), Sorghum” value in the data set on Sorghum [9] was 50%. In addition, in the data set on Ambrosia, the “degree of damage to the plants (% damage vs untreated control), Ambrosia” value was 80%. Further, the “degree of damage to the plants (% damage vs untreated control), Matricaria” value in the data set with Matricaria [10] worked out at 90%. Further, the “degree of damage to the plants (% damage vs untreated control), Solanum” value with Solanum came to 90%.
